Assay results from ChEMBL document CHEMBL1201862, “PubChem BioAssay data set” (2004).
“And” between values parts separate entries of the source, which are not always exact repeats. Identical values can stand only once. The source made the active and inactive calls.

How the values were obtained:
[1] = cytotoxicity toward DRD oncogenic fibroblasts, dose response, cell-based, non-viral oncogenic, luminescence (AID 1934); format: functional; conditions: Homo sapiens
[2] = system: BJ; test: cytotoxicity toward BJ-TERT fibroblasts, dose response, cell-based, RAS-independent, luminescence (AID 1933); format: functional; conditions: Homo sapiens
[3] = system: BJ; test: cytotoxicity toward BJ-TERT-LT-ST fibroblasts, dose response, cell-based, RAS-independent, luminescence (AID 1935); format: functional; conditions: Homo sapiens;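 also: BJ fibroblasts immortalized with TERT plus LT and ST oncogenes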
[4] = system: BJ; test: cells; format: functional, cell-based; conditions: Homo sapiens
[5] = biological target: T1, Cytochrome P450 1A2 (Homo sapiens, UniProt P05177);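 also: PubChem cytochrome P450 panel assay, CYP1A2 panel member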
T1 sequence (P05177 whole entry): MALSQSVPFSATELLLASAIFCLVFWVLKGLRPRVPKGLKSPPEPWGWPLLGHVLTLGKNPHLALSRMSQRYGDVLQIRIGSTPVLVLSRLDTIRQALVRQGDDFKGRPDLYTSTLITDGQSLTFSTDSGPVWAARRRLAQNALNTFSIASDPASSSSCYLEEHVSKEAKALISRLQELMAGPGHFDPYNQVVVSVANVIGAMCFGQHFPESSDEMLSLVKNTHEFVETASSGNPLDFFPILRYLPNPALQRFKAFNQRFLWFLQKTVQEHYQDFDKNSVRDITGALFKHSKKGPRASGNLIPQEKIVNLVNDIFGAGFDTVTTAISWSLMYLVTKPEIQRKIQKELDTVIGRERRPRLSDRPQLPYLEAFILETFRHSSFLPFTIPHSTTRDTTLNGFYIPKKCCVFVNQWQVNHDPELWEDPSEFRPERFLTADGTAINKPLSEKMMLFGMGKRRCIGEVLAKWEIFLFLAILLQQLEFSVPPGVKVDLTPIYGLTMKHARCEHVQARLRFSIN

[6] = biological target: Cytochrome P450 2C9 (Homo sapiens, UniProt P11712)
Chain of Cytochrome P450 2C9 (P11712 whole entry): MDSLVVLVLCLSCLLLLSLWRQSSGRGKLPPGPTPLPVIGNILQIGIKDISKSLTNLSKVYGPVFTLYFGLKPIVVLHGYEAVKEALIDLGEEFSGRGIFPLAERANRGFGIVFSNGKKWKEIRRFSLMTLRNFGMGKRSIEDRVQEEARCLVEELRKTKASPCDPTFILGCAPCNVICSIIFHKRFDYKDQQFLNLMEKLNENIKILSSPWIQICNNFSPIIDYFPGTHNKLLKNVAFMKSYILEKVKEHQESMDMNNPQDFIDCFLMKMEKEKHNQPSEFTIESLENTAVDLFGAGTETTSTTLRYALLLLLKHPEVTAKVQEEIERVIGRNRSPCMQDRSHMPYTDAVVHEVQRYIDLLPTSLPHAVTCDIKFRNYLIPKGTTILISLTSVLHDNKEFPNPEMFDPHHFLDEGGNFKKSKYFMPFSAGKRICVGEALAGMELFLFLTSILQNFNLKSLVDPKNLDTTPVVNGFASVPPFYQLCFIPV

[7] = biological target: Cytochrome P450 2C19 (Homo sapiens, UniProt P33261); test: Cytochrome panel assay with activity outcomes. Panel member name: p450-cyp2c19 Compounds with AC50 equal or less than 10 uM are considered active; format: functional; conditions: read-out: AC50
Chain of Cytochrome P450 2C19 (P33261 whole entry): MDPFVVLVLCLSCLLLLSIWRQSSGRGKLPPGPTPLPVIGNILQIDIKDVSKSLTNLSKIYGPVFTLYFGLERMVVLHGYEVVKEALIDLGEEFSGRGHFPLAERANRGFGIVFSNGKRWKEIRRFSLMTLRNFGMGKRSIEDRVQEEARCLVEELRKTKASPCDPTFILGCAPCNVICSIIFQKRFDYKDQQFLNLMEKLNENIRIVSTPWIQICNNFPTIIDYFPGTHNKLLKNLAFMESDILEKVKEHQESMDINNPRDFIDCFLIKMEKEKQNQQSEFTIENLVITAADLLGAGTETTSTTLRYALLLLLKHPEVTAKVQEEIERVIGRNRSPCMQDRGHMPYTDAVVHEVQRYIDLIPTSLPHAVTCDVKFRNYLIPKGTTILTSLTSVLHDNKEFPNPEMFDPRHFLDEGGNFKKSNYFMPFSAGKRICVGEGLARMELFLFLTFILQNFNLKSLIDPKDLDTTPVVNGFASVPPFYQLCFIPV

[8] = biological target: T2, Rac GTPase-activating protein 1 (Homo sapiens, UniProt Q9H0H5); test: MgcRacGAP GTPase-activating activity inhibitors, confirmation, biochemical, ADP Hunter fluorescence, primary and confirmatory (AID 624330); format: functional
T2 sequence (Q9H0H5 whole entry): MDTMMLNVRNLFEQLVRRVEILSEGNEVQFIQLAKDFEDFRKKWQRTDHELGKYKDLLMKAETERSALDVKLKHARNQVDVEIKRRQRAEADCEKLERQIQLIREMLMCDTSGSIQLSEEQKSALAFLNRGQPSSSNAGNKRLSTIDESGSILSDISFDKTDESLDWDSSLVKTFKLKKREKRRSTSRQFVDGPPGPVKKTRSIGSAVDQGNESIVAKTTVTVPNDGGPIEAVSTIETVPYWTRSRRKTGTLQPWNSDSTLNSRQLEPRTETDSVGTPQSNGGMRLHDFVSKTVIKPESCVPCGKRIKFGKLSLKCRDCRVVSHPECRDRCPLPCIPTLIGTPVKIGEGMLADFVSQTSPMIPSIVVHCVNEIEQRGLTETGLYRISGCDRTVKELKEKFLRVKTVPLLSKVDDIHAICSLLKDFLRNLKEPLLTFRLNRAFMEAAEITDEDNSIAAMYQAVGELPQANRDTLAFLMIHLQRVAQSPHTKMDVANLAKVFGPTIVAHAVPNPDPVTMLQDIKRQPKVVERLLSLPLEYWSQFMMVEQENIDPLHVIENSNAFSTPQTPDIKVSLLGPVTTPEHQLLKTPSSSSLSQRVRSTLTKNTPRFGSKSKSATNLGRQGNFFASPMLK

[9] = cells; format: functional
[10] = Luminescence Cell-Based Dose Retest to Confirm Inhibitors of Cancer Stem Cells. [Related pubchem assays (depositor defined):AID2717, AID2721]; format: functional; conditions: Homo sapiens
[11] = biological target: Cytochrome P450 3A4 (Homo sapiens, UniProt P08684);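 also: CYP3A4 tested as one member of a cytochrome P450 panel screen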
Chain of Cytochrome P450 3A4 (P08684 whole entry): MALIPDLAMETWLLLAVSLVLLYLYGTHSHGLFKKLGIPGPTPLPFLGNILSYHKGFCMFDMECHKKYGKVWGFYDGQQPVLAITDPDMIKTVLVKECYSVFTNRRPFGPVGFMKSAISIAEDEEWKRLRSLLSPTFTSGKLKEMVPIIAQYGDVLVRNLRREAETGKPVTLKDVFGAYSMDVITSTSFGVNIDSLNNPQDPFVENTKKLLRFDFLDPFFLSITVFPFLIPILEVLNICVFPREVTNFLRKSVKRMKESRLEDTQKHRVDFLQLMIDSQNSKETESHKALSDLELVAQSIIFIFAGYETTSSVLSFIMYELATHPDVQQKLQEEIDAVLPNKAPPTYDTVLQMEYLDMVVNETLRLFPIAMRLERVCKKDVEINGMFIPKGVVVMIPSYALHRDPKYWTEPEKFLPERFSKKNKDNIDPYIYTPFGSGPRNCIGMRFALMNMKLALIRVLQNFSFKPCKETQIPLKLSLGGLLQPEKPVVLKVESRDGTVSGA

[12] = system: H4; test: Luminescence Cell-Based Dose Response HTS to Identify Activators of 5'UTR Stem-Loop Driven Prion Protein mRNA Translation in H4 Neuroglioblastoma Cells. [Related pubchem assays: 1829 (Project Summary), 1814 (Primary HTS)]; format: functional; conditions: Homo sapiens
[13] = Luminescence Cell-Based Dose Response HTS to Identify Activators of Luciferase Translation or Activity in H4 […] Cells. [Related pubchem assays: 1829 (Project Summary), 1814 (Primary HTS)]; format: functional
[14] = inhibitors of SNCA 5'UTR-driven reporter translation, confirmation, H4 neuroglioma cells, luminescence (AID 1988); format: functional, cell-based
[15] = Luminescence Cell-Based Dose Response HTS to Identify Inhibitors of 5'UTR Stem-Loop Driven Prion Protein mRNA Translation in H4 Neuroglioblastoma Cells. [Related pubchem assays: 1827 (Project Summary), 1813 (Primary HTS)]; format: functional
[16] = inhibitors of firefly luciferase expression or activity, dose response, H4 neuroglioma cells, luminescence (AID 1990); format: functional, cell-based

For `CN1CCN(CC(=O)Nc2ccc([N+](=O)[O-])cc2C(=O)c2ccccc2)CC1`, the EC50 [1] was > 150 µM (not active), the EC50 [2] was > 150 µM (not active) and the EC50 [3] was > 150 µM (not active). The EC50 [4] was > 150 µM (not active).
With `COc1cccc(Cn2c(=O)c(-c3cn(C)c4ccccc34)nc3cnc(N4CCOCC4)nc32)c1` the AC50 [5] was 25.1 µM (inconclusive).
With `CCc1noc(C)c1C(=O)Nc1nc(-c2cc(C)ccc2C)c(C)s1` the AC50 [6] was 7.94 µM (inconclusive), the AC50 [5] was 15.8 µM (inconclusive) and the AC50 [7] was 7.08 µM (inconclusive).
For `O=C1CC(N(O)C2CC(=O)N(Cc3ccccc3)C2=O)C(=O)N1Cc1ccccc1` (stereo not given), the AC50 [6] was 11.2 µM (inconclusive), the AC50 [5] was 39.8 µM (inconclusive) and the AC50 [7] was 2 µM (inconclusive).
For `Cc1ccc(/C=C2/C(=O)ON=C2c2ccccc2)o1`, the EC50 [1] was 12.2 µM (active), the EC50 [2] was 12.8 µM (active) and the EC50 [3] was > 150 µM (inconclusive). For the same compound, the EC50 [4] was 18.3 µM (active) and the IC50 [8] was 36.9 µM (active).
For `O=S(=O)(O)c1ccc(/N=N\c2ccc3c(S(=O)(=O)O)cccc3c2O)c2ccccc12`, the AC50 [5] was 3.16 µM (inconclusive).
With `CN(C)S(=O)(=O)c1ccc(C(=O)Oc2ccccc2)cc1` the IC50 [9] was 7.22 µM (active).
For `O=C(Cn1cc([N+](=O)[O-])nc1[N+](=O)[O-])N1CCN(c2ccccc2)CC1`, the IC50 [9] was 7.01 µM (active).
With `Cc1ccc(NC(=O)C(C)N2C(=O)C3C4CC(C(Br)C4Br)C3C2=O)cc1` (stereo not given) the AC50 [5] was 25.1 µM (inconclusive).
For `COc1ccc(-c2c(-c3cc(OC)cc(OC)c3)n(C)c3ccc(-c4cc(F)cc(OC)c4)cc23)cc1`, the AC50 [10] was > 195 µM (inactive).
In the case of `CCNc1ncc2nc(-c3ccc(OC)cc3)c(=O)n(CCC#N)c2n1`, the AC50 [11] is reported as 15.8 µM (inconclusive) and the AC50 [5] is reported as 10 µM (inconclusive).
With `COc1ccc2cc(-c3csc(-c4cccnc4)n3)ccc2c1` the EC50 [12] was 22 µM (active) and the EC50 [13] was 0.108 µM (inconclusive).
In the case of `COc1ccccc1-n1c(SCC(=O)N2CCCC2)nc2cccnc21`, the AC50 [6] is reported as 1 µM (inconclusive) and the AC50 [5] is reported as 0.1 µM (inconclusive).
For `CCn1cc(C(=O)O)c(=O)c2cc3c(cc21)OCO3` [OXOLINIC ACID], the AC50 [5] was 5.01 µM (inconclusive) and 2.51 µM (inconclusive).
In the case of `COc1ccccc1N1CCN(C(=O)CCc2nnc3ccc(N4CCC(C)CC4)nn23)CC1`, the EC50 [14] is reported as 17.3 µM (active), the EC50 [15] is reported as > 120 µM (not active) and the EC50 [16] is reported as 11.2 µM (active).
With `Cc1cc(C)nc(NC(=NC(=O)Nc2ccc(Cl)cc2)NCCc2c[nH]c3ccccc23)n1` the AC50 [10] was 2.28 µM (active).
For `O=C1NCCc2c1[nH]c1ccc([N+](=O)[O-])cc21`, the EC50 [14] was 16.3 µM (active), the EC50 [15] was 15.6 µM (active) and the EC50 [16] was 12.9 µM (active).
For `CC(C)OCCCNc1nc2c(c(=O)n(Cc3ccccc3F)c(=O)n2C)n1C`, the EC50 [14] was > 120 µM (not active), the EC50 [15] was > 120 µM (not active) and the EC50 [16] was 16.8 µM (active).
With `COC(=O)C1=C(C)N=C(C)/C(=C(/O)O[C@@H]2CCCN(Cc3ccccc3)C2)[C@@H]1c1cccc([N+](=O)[O-])c1` the EC50 [14] was 9.3 µM (active), the EC50 [15] was 14.6 µM (active) and the EC50 [16] was 12 µM (active).
In the case of `COc1ccc2sc(-c3ccc(N(C)C)cc3)c(C#Cc3cncn3C)c2c1`, the AC50 [10] is reported as 1.11 µM (active).
For `CCc1ccc(C(=O)COC(=O)c2ccc(Cl)nc2)cc1`, the IC50 [9] was > 50 µM (active).
In the case of `CCc1nc(SCC(=O)NC2CC2)c2c(C)c(C)sc2n1`, the EC50 [14] is reported as > 120 µM (not active), the EC50 [15] is reported as > 120 µM (not active) and the EC50 [16] is reported as 16.7 µM (active).
With `O=c1cc(-c2ccncc2)oc2c1ccc1ccccc12` the IC50 [9] was 17.9 µM (active).
In the case of `CN(CCc1ccc(Cl)c(Cl)c1)[C@H]1CCCC[C@H]1N1CCCC1`, the AC50 [5] is reported as 31.6 µM (inconclusive).
For `CCOC(=O)C1CSC(CC(=O)Nc2ccc(Cl)c(Cl)c2)C(=O)N1` (stereo not given), the IC50 [9] was 36.2 µM (active).
In the case of `O=C(Cc1ccccc1)NC(NCCc1ccccc1)C(Cl)(Cl)Cl` (stereo not given), the AC50 [5] is reported as 25.1 µM (inconclusive).
For `COc1ccc(-c2nc(CS(=O)(=O)CC(=O)NCCCc3ccccc3)c(C)o2)cc1`, the EC50 [14] was 14.5 µM (active), the EC50 [15] was > 120 µM (not active) and the EC50 [16] was > 120 µM (not active).
For `COc1ccc2c(CC(=O)NCC3CCC(C(=O)O)CC3)cc(=O)oc2c1` (stereo not given), the AC50 [6] was 15.8 µM (inconclusive) and the AC50 [5] was 22.4 µM (inconclusive).
In the case of `Cc1ccc(NC(=O)/C=C/c2ccc3c(c2)OCO3)nc1`, the AC50 [10] is reported as 1.08 µM (active).
In the case of `Cc1c(C)c2ccc(OCC(=O)Nc3cccnc3)c(C)c2oc1=O`, the EC50 [12] is reported as 16 µM (active) and the EC50 [13] is reported as 22 µM (active).
In the case of `CC(C)c1ccc(C2C3=C(O)OCC3=Nc3cc4c(cc32)OCO4)cc1` (stereo not given), the EC50 [1] is reported as 0.88 µM (active), the EC50 [2] is reported as 0.746 µM (inconclusive) and the EC50 [3] is reported as 0.386 µM (inconclusive). For the same compound, the EC50 [4] was 5.49 µM (inconclusive).
For `COc1ccc(NN/C=C2/C(=O)NC(=O)N(c3ccc(C)c(C)c3)C2=O)cc1`, the EC50 [14] was > 120 µM (not active), the AC50 [10] was 0.716 µM (active) and the EC50 [15] was > 120 µM (not active). For the same compound, the EC50 [16] was 15.2 µM (active).
In the case of `O=C(CN1CCN(c2ccc(Cl)cc2)CC1)Nc1ccc(F)c(F)c1`, the AC50 [11] is reported as 25.1 µM (inconclusive) and the AC50 [5] is reported as 14.1 µM (inconclusive).
For `N#CC(C#N)=Cc1ccc([N+](=O)[O-])c(O)c1`, the AC50 [11] was 1.58 µM (inconclusive), the AC50 [6] was 31.6 µM (inconclusive) and the AC50 [5] was 31.6 µM (inconclusive).
In the case of `Cc1ccc(OC(=O)c2ccc(Br)o2)cc1`, the IC50 [9] is reported as 18.5 µM (active).
With `CCOC(=O)COc1ccc(C(=O)Nc2cccc(Cl)c2C)cc1` the IC50 [9] was 0.52 µM (active).
For `CC(=O)c1cc2c(ccc3ccccc32)oc1=O`, the IC50 [9] was 15.4 µM (active).
In the case of `O=C(O)c1cc(-c2ccc(-c3ccccc3)cc2)nc2cc3ccccc3cc12`, the AC50 [5] is reported as 0.794 µM (inconclusive) and the AC50 [7] is reported as 3.98 µM (inconclusive).
For `COc1ccc(C(=O)O/N=C/c2c(C(F)(F)F)nn(C)c2SCc2ccccc2Cl)cc1`, the EC50 [14] was 12 µM (active), the EC50 [15] was 12.8 µM (active) and the EC50 [16] was 17 µM (active).
With `Cc1nnc(S)n1/N=C/c1ccc(OCc2ccc(Cl)cc2Cl)cc1` the IC50 [9] was 43.8 µM (active).
In the case of `COc1ccccc1N1CCN(C(=O)c2ccc([N+](=O)[O-])s2)CC1`, the IC50 [9] is reported as 46.4 µM (active).
In the case of `Cc1cc(C)c(NC(=O)CSCc2c(C)noc2C)c(C)c1`, the AC50 [10] is reported as > 195 µM (inactive).
With `c1cnc(N2CC[C@@]3(CCCNC3)C2)nc1` the AC50 [11] was 31.6 µM (inconclusive) and the AC50 [5] was 25.1 µM (inconclusive).
For `CCOC(=O)C1=C(C)N=C(C)/C(=C(/O)OCC)C1c1ccccc1/C=C/C(=O)OC(C)(C)C` (stereo not given), the AC50 [10] was 3.4 µM (active).
